Experimental data: paper PMC11423305, “Structure-Based Design of CBP/EP300 Degraders: When Cooperativity Overcomes Affinity” (JACS Au, 2024)
Like-named read-outs stand apart in the source and are kept apart here.

Legend:
[1] = target: T1, EP300-BRD (Homo sapiens, UniProt Q09472); assay: BROMOscan ligand binding site-directed competition assay, EP300
T1 construct: T7 phage display fusion with DNA tag for qPCR; purchased Eurofins Discovery (BROMOscan service); host or cells: E. coli infected with T7 phage
T1 sequence (Q09472 1049-1156 limits assumed): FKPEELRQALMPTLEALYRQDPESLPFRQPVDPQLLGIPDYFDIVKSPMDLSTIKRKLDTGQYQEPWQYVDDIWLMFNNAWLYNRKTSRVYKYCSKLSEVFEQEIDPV
Method: 2. Methods and General Procedures […]
KD values were determined using BROMOscan™ technology, carried out by Eurofins […]
Discovery according to their standard protocol. Briefly E. coli were infected with T7 phage […]
strains displaying bromodomains and bromodomain protein was subsequently purified […]
through lysis, centrifugation and filtration. Affinity resins were generated by incubation of […]
streptavidin-coated magnetic beads with biotinylated small molecules or acetylated […]
peptide ligands. Binding reactions were assembled by combining the bromodomains and […]
liganded affinity beads in binding buffer (17 % SeaBlock, 0.33x PBS, 0.04 % Tween 20, […]
0.02 % BSA, 0.004 % sodium azide and 7.4 mM DTT) with compounds (11-point, 3-fold […]
dilution series) added to give a final DMSO concentration of 0.09 %. Assay plates were […]
incubated for 1 h, prior to washing and elution of beads. The bromodomain concentration […]
in the eluates was measured by qPCR of the DNA tag on the bromodomain.
KD values were calculated with a standard dose-response curve fitted using the Hill […]
Response = Background + Signal − Background […]
The Hill Slope was set to -1 and curves fitted using a non-linear least square fit with the Levenberg-Marquardt algorithm.
Ligand efficiency (LE) was calculated as follows: LE = 1.4(pIC50)/N

[2] = target: CRBN and CBP catalytic core (Homo sapiens, UniProt Q92793+Q96SW2); assay: FluoPPI cellular ternary complex formation, CBP catalytic core; type: cell-based; conditions: U2OS cells, 6 h
Sequence of CRBN and CBP catalytic core (Q92793 1081-1700): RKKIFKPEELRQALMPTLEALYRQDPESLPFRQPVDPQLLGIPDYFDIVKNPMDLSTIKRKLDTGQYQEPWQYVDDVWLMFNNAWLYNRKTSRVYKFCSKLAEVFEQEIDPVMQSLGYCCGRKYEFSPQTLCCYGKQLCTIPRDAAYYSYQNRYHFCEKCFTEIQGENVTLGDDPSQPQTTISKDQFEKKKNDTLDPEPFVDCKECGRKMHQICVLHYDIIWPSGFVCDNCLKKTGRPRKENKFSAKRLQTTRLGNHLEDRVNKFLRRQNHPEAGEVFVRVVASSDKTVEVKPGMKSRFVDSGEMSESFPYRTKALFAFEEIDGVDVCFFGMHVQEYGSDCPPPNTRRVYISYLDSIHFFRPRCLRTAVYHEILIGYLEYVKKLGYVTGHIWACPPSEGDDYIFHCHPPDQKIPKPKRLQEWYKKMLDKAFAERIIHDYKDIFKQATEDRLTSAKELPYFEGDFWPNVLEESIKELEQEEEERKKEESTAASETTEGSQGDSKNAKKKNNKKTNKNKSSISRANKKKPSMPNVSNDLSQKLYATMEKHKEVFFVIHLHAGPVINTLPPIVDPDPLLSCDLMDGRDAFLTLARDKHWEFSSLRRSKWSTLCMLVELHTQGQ
Sequence of CRBN and CBP catalytic core (Q96SW2 whole entry): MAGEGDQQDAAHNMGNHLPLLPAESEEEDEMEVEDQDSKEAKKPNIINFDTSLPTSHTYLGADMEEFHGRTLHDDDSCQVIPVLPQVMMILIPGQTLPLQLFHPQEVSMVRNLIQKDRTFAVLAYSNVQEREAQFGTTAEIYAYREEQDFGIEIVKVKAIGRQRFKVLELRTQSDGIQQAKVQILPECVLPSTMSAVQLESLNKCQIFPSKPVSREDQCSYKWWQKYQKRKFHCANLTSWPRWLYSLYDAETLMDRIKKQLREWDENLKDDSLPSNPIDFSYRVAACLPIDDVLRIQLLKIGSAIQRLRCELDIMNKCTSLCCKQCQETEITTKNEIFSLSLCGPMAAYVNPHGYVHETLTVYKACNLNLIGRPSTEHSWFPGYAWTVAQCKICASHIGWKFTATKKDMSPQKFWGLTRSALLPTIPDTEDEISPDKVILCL

[3] = target: CRBN and CBP-BRD (Homo sapiens, UniProt Q92793+Q96SW2); assay: FluoPPI cellular ternary complex formation, CBP-BRD; type: cell-based; conditions: U2OS cells, 6 h
Sequence of CRBN and CBP-BRD (Q92793 1081-1211): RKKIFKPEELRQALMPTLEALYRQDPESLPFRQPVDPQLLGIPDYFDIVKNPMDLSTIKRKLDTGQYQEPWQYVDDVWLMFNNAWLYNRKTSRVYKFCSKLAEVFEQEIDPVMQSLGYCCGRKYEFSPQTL
Sequence of CRBN and CBP-BRD (Q96SW2 whole entry): as the sequence (Q96SW2 whole entry) above

[4] = target: T2, CBP (Homo sapiens, UniProt Q92793); assay: Quantification of CBP degradation by Western blotting in LP1 cells; type: cell-based
T2 construct: quantification of CBP and EP300 levels by Western blotting following 16 h treatment of LP1 cells; endogenous in cells; host or cells: LP1 cells
T2 sequence (Q92793 whole entry): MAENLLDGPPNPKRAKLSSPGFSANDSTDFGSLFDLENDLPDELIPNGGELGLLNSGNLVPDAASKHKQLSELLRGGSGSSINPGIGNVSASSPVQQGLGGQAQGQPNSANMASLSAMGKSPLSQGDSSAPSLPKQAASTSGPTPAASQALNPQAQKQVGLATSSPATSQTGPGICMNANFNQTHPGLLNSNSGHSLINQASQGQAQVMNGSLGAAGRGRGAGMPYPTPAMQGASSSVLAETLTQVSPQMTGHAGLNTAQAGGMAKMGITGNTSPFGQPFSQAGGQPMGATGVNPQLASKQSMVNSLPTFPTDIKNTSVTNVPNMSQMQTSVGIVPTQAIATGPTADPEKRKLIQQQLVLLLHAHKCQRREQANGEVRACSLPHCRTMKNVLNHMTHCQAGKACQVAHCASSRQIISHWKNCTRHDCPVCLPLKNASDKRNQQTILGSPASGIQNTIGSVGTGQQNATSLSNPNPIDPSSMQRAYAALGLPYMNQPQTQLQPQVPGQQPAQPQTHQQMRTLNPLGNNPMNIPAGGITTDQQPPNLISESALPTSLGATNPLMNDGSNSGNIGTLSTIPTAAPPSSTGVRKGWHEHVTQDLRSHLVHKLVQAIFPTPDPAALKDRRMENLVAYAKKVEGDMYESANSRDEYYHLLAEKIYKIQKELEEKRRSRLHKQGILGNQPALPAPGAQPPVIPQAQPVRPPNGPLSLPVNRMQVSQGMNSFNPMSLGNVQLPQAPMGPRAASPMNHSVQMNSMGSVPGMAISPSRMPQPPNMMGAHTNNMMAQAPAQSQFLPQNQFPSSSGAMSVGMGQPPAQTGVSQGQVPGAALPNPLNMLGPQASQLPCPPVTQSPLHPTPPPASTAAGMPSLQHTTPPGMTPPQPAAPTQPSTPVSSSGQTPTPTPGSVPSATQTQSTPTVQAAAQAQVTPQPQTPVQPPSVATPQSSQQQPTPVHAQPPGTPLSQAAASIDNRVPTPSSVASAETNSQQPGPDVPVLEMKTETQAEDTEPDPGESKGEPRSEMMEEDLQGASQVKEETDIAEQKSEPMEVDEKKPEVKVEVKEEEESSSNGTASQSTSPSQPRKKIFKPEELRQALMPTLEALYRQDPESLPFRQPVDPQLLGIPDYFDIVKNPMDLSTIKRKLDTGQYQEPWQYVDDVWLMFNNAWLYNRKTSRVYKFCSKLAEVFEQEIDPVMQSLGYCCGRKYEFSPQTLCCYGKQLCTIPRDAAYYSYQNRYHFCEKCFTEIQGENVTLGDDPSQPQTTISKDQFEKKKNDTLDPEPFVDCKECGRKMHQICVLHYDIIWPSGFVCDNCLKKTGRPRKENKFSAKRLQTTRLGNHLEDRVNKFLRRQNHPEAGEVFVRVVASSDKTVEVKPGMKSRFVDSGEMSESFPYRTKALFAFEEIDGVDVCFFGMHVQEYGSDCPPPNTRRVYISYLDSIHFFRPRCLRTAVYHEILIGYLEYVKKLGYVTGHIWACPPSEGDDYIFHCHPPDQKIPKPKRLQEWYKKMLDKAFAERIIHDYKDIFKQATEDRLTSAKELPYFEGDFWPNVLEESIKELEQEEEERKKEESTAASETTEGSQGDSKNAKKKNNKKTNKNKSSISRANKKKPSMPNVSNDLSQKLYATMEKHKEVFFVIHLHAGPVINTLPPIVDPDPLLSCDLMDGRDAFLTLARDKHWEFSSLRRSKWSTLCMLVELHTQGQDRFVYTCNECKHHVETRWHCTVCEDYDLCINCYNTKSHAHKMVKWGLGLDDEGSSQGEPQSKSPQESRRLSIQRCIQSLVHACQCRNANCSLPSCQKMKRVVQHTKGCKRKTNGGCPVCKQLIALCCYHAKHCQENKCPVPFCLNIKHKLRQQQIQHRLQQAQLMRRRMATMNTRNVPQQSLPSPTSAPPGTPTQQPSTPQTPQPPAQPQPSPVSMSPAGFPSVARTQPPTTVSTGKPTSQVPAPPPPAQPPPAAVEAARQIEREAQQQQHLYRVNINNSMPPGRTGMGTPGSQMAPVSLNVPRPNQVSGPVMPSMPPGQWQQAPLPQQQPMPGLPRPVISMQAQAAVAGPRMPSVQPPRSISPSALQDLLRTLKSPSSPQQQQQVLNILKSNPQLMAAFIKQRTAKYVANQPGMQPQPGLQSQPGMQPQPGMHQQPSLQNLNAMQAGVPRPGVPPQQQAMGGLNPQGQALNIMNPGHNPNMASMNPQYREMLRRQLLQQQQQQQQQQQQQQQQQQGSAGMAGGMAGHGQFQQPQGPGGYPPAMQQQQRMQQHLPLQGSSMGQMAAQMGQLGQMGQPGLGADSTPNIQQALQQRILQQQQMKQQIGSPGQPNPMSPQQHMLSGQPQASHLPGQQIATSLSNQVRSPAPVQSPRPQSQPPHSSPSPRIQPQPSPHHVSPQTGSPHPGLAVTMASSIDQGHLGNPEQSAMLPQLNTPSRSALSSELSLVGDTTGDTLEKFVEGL
Method: LP1 cells were cultured in DMEM (Gibco, 41966-029) supplemented with 15 % FBS (Sigma, F9665); MM1S and LNCaP cells in RPMI 1640 ATCC modification (Gibco, […]
DMEM/F12 (Gibco, 11320074) supplemented with 1 % non-essential amino acids […]
additionally supplemented with 1 % penicillin/streptomycin (Gibco, 15070-063), and cells maintained in a humidified incubator with 5 % CO2 at 37 °C. The identity of all lines (except for MM1S which were recently purchased from ATCC) was authenticated by STR profiling (performed by Microsynth).
Quantification of CBP/EP300 degradation by Western blotting
LP1 cells plated on 6 well plates were treated with the stated compounds at a final concentration of 0.1 % DMSO for the stated time. Cells were harvested on ice, washed in PBS and lysed in RIPA buffer (50 mM tris pH 7.5, 2 mM EDTA, 150 mM NaCl, 0.5 % sodium deoxycholate, 1 % Triton X100) supplemented with cOmplete ™ protease inhibitor cocktail (Roche). Protein concentrations were determined using the Pierce ™ BCA Protein Assay Kit (Thermo Scientific, 23227) and equal amounts were separated on 4-12 % ExpressPl us™ PAGE gels (GenScript, M41215). Proteins were transferred to PVDF membranes, the membranes were blocked with 5 % milk (Merk Millipore, 115363) in PBS-T and proteins were stained with the following antibodies at 4 °C overnight: CBP […]
BRD4 (Bethyl Laboratories, A301-985A50, diluted 1:2000) and vinculin (Invitrogen, 42H89L44, diluted 1:1000). For detection, membranes were incubated for 1 h at room temperature with HRP-conjugated secondary antibodies (Southern Biotech, anti-rabbit […]
SuperSignal™ West Pico PLUS Chemiluminescent Substrate (Thermo Scientific, 34580) and the Vilber Fusion-FX7 imager. Bands were quantified using ImageJ software and protein levels normalized to protein from DMSO treated cells run on the same membrane. For dose response curves, data was fitted using a four -parameter dose-response curve in GraphPad Prism v. 9.5.1, where the top is fixed at 100 %. The DC50 was defined as the PROTAC concentration resulting in 50 % remaining protein. […]

[5] = target: CBP-BRD (Homo sapiens, UniProt Q92793); assay: TR-FRET competition with acetylated peptide binding to CBP-BRD, with and without CRBN (cooperativity); design: GST-CBP (human, residues 1081-1197); made in house; host or cells: Rosetta (DE3) cells (E. coli)

In the case of `Cc1cc2c(NC(=O)c3cc(NC(=O)CCCCCCCCCCNc4cccc5c4C(=O)N(C4CCC(=O)NC4=O)C5=O)cc(-c4ccn(C)n4)c3)cccc2nn1` (centres unmarked) [dCE-2], the Kd ([1]; BROMOscan) is reported as > 10000 nM, the “loss of potency compared to parent compound 3, EP300” value ([1]; BROMOscan KD ratio) is reported as > 400 fold and the “ternary complex formation in cells with CBP catalytic core” value [2] is reported as “able to induce ternary complex formation”. For the same molecule, the “ternary complex formation in cells with CRBN and CBP-BRD” value [3] was “good ternary complex formation”, the “time at which CBP/EP300 degradation begins to occur” value ([4]; 1 μM, time course) was ≤ 2 h and the “time to reach maximal CBP/EP300 degradation (Dmax)” value ([4]; 1 μM, time course) was 16 to 24 h. The “% remaining CBP” value ([4]; 5 μM compound, 16 h, Western blot) was 16%, the DC50 ([4]; 16 h) was 40 nM and the Dmax ([4]; LP-1, 16 h) was > 85%. For the same molecule, the IC50 ([5]; absence of CRBN, read-out: CBP-BRD IC50 (binary, IC50[control])) was 150 nM and the IC50 ([5]; presence of high concentrations of CRBN C-terminal thalidomide binding domain, read-out: ternary IC50 (IC50[CRBN])) was 45 nM.
